Results reported in PubChem BioAssay (NCI).
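Five compound concentrations were applied to cells in 96-well plates for 48 hours; endpoints were derived by simple linear interpolation of the resulting dose-response curve. At the GI50, growth is halved. At the TGI there is no net growth.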

Assays:
Assay in all cases: growth of human tumour cells (NCI), 48 h
[1] = tested on: 786-0 renal
[2] = tested on: A498 renal
[3] = tested on: A549 NSCLC
[4] = tested on: ACHN renal
[5] = tested on: BT-549 breast
[6] = tested on: CAKI-1 renal
[7] = tested on: CCRF-CEM leukemia
[8] = tested on: COLO 205 colon
[9] = tested on: DU-145 prostate
[10] = tested on: EKVX NSCLC
[11] = tested on: HCC-2998 colon
[12] = tested on: HCT-116 colon
[13] = tested on: HCT-15 colon
[14] = tested on: HL-60(TB) leukemia
[15] = tested on: HOP-62 NSCLC
[16] = tested on: HOP-92 NSCLC
[17] = tested on: HS 578T breast
[18] = tested on: HT29 colon
[19] = tested on: IGROV1 ovarian
[20] = tested on: K-562 leukemia
[21] = tested on: KM12 colon
[22] = tested on: LOX IMVI melanoma
[23] = tested on: M14 melanoma
[24] = tested on: MALME-3M melanoma
[25] = tested on: MCF7 breast
[26] = tested on: MDA-MB-231 breast
[27] = tested on: MDA-MB-435
[28] = tested on: MOLT-4 leukemia
[29] = tested on: NCI-H226 lung
[30] = tested on: NCI-H23 lung
[31] = tested on: NCI-H460 lung
[32] = tested on: NCI-H522 lung
[33] = tested on: NCI/ADR-RES ovarian
[34] = tested on: OVCAR-3 ovarian
[35] = tested on: OVCAR-4 ovarian
[36] = tested on: OVCAR-5 ovarian
[37] = tested on: OVCAR-8 ovarian
[38] = tested on: PC-3 prostate
[39] = tested on: RPMI-8226 leukemia
[40] = tested on: RXF 393 renal
[41] = tested on: SF-268 CNS
[42] = tested on: SF-295 CNS
[43] = tested on: SF-539 CNS
[44] = tested on: SK-MEL-2 melanoma
[45] = tested on: SK-MEL-28 melanoma
[46] = tested on: SK-MEL-5 melanoma
[47] = tested on: SK-OV-3 ovarian
[48] = tested on: SN12C renal
[49] = tested on: SNB-19 CNS
[50] = tested on: SNB-75 CNS
[51] = tested on: SR leukemia
[52] = tested on: SW-620 colon
[53] = tested on: T-47D breast
[54] = tested on: TK-10 renal
[55] = tested on: U251 CNS
[56] = tested on: UACC-257 melanoma
[57] = tested on: UACC-62 melanoma
[58] = tested on: UO-31 renal

C=C(C)C(=O)O[C@H]1C[C@@]2(C)OC(=CC2=O)/C(C)=C\[C@H]2OC(=O)C(=C)[C@H]12
GI50 [1]: 660 nM | TGI [1]: 1500 nM | GI50 [2]: 7420 nM | TGI [2]: 16500 nM | GI50 [3]: 8470 nM | TGI [3]: > 33200 nM | GI50 [4]: 625 nM | TGI [4]: 1600 nM | GI50 [5]: 927 nM | TGI [5]: 3030 nM | GI50 [6]: 928 nM | TGI [6]: 3120 nM | GI50 [7]: 930 nM | TGI [7]: 4250 nM | GI50 [8]: 554 nM | TGI [8]: 1260 nM | GI50 [9]: 968 nM | TGI [9]: 4180 nM | GI50 [10]: 1310 nM | TGI [10]: 12200 nM | GI50 [11]: 3300 nM | TGI [11]: 8150 nM | GI50 [12]: 530 nM | TGI [12]: 1210 nM | GI50 [13]: 795 nM | TGI [13]: 3290 nM | GI50 [14]: 913 nM | TGI [14]: 2450 nM | GI50 [15]: 6500 nM | TGI [15]: 24600 nM | GI50 [16]: 1040 nM | TGI [16]: 2990 nM | GI50 [17]: 8210 nM | TGI [17]: > 33200 nM | GI50 [18]: 957 nM | TGI [18]: 3290 nM | GI50 [19]: 1950 nM | TGI [19]: 6230 nM | GI50 [20]: 1150 nM | TGI [20]: > 33200 nM | GI50 [21]: 3840 nM | TGI [21]: 8870 nM | GI50 [22]: 601 nM | TGI [22]: 1340 nM | GI50 [23]: 790 nM | TGI [23]: 2370 nM | GI50 [24]: 666 nM | TGI [24]: 1500 nM | GI50 [25]: 1000 nM | TGI [25]: 5330 nM | GI50 [26]: 1180 nM | TGI [26]: 4640 nM | GI50 [27]: 717 nM | TGI [27]: 1780 nM | GI50 [28]: 1010 nM | TGI [28]: 3520 nM | GI50 [29]: 762 nM | TGI [29]: 1990 nM | GI50 [30]: 1540 nM | TGI [30]: 8320 nM | GI50 [31]: 5010 nM | TGI [31]: > 33200 nM | GI50 [32]: 461 nM | TGI [32]: 1040 nM | GI50 [33]: 1110 nM | TGI [33]: > 33200 nM | GI50 [34]: 863 nM | TGI [34]: 2920 nM | GI50 [35]: 1380 nM | TGI [35]: 6360 nM | GI50 [36]: 1030 nM | TGI [36]: 3210 nM | GI50 [37]: 1230 nM | TGI [37]: > 33200 nM | GI50 [38]: 2010 nM | TGI [38]: 7630 nM | GI50 [39]: 1060 nM | TGI [39]: 3400 nM | GI50 [40]: 601 nM | TGI [40]: 1190 nM | GI50 [41]: 1990 nM | TGI [41]: > 16700 nM | GI50 [42]: 5820 nM | TGI [42]: 18500 nM | GI50 [43]: 1070 nM | TGI [43]: 4780 nM | GI50 [44]: 1400 nM | TGI [44]: 6020 nM | GI50 [45]: 788 nM | TGI [45]: 1960 nM | GI50 [46]: 3670 nM | TGI [46]: 13600 nM | GI50 [47]: 10700 nM | TGI [47]: > 33200 nM | GI50 [48]: 1300 nM | TGI [48]: 11000 nM | GI50 [49]: 11100 nM | TGI [49]: > 33200 nM | GI50 [50]: 1150 nM | TGI [50]: 16400 nM | GI50 [51]: 734 nM | TGI [51]: 6300 nM | GI50 [52]: 705 nM | TGI [52]: 1720 nM | GI50 [53]: 661 nM | TGI [53]: 3800 nM | GI50 [54]: 859 nM | TGI [54]: 2060 nM | GI50 [55]: 1750 nM | TGI [55]: 7160 nM | GI50 [56]: 872 nM | TGI [56]: 2280 nM | GI50 [57]: 675 nM | TGI [57]: 1800 nM | GI50 [58]: 560 nM | TGI [58]: 1240 nM
